Series [1] is described as follows: Photostability of C14 porphyrin in aqueous medium. It counts as physicochemical. Conditions: 2.5 μM in PBS; visible light 20 mW/cm^2 for up to 60 minutes. As for the experimental part:
The photostability of the C14 porphyrin was determined in phosphate-buffered saline (PBS) upon illumination of a 2.5 μM porphyrin solution (initial absorbance around 0.5 at 424 nm) with white light (400-800 nm), which was isolated from the emission of a quartz-halogen lamp equipped with broad band filters to eliminate UV and infrared radiation. The light source was supplied by Teclas (Lugano, Switzerland), and operated at a fluence rate of 20 mW/cm^2. During irradiation the porphyrin solution was kept in agitation on a magnetic stirrer at room temperature. The concentration of the porphyrin in the aqueous solution was monitored spectrophotometrically at different irradiation times up to 60 min, and the photostability was expressed as the percent residual absorbance referred to the absorbance measured before irradiation.
The stability of C14 to the effect of full spectrum visible light was studied for a 2.5 μM porphyrin solution in PBS. The exposure of the porphyrin to visible light at a fluence rate of 20 mW/cm^2 for up to 60 minutes caused a decrease in the overall absorbance of less than 10%, which involved the whole set of bands in the blue, green and red spectral region. […]

For series [2], the system named is Aedes aegypti. Kind of series: Laboratory-scale tray larvicide test. It counts as in vivo. To be noted: carrier mouse food; 70 mg per tray; loading concentration 5 μM; fluorescent lamp. On the procedure:
Laboratory strains of Anopheles stephensi, M and S (Kisumu), chromosomal forms of An. gambiae, An. arabiensis and Aedes aegypti, as well as field-collected Anopheles spp. and Aedes spp. larvae were used. Laboratory mosquitoes were maintained at 28-30° C., >90% RH and a photoperiod of 12 h. Light intensity ranged between 0.5 mW/cm^2 (fluorescent lamp) and 185 mW/cm^2 (sunlight).
C12 or C14 porphyrin solutions at 5-100 μM concentrations were pre-incubated at room temperature in the darkness with 15-60 mg of carrier (either Eudragit or ground mouse food or cat food) for 4-12 hours under gentle shaking. After incubation the solutions were filtered, and the loaded carrier was dried at room temperature or in an oven (45° C.).
Batches of 60-100 L2, L3 or L4 larvae were introduced into the trays after sunset (or artificial light off). Larval mortality was evaluated the next day starting from 8.00 am, and the time required to reach at least 90% mortality was recorded. Larvae not moving or not showing an escaping response at probing were defined as dead or dying, and counted together (Tables 2 and 3). Pupae occasionally formed throughout the irradiation time were discarded and excluded from the evaluation. An equal number of batches of larvae prepared in the same way were kept in continuous darkness and mortality was evaluated similarly, to assess toxicity in the dark. […]

The test system of series [3] is A. aegypti larvae. Kind of series: Larvicidal efficacy of C14 porphyrin-loaded PFP. The format is in vivo. Conditions: 3 hours irradiation. As for the experimental part: Food particles (70 mg) were added at the time of introduction of the larvae (n=50, see methods for details). Arithmetic means of percent dead, dying and living larvae after 3 hours irradiation (intensity 1.0-4.0 mW/cm^2). Error bars represent standard deviations, (n=3 replicates of 50 larvae each).
Trays containing 5 μM C14 porphyrin solution and 70 mg PFP (wherein PFP means powdered food pellet (PFP) with final particle diameter of 5-500 μm diameter obtained by crushing a standard food pellet for laboratory rodents, namely 4RF18 GLP (Mucedola Srl, Italy) using an electric blender and then sieving at mesh diameter 500 μm) were incubated at 28±2° C. for 5 days in the dark. The solution was then filtered using Whatman qualitative filter papers (Whatman International Ltd., UK). The eluted C14 solution was conserved, and the incubated PFP retained on the filter paper was washed with 10 ml distilled water before further use. Experimental groups were designed as follows: 1) filtered, C14-incubated PFP in spring water (group A); 2) C14 solution eluate, added with 70 mg fresh PFP (group B); 3) 5 μM C14 solution incubated without PFP for 5 days in the dark, added with 70 mg fresh PFP (group C); 4) freshly prepared 5 μM C14 solution, added with 70 mg PFP (group D); 5) spring water added with 70 mg fresh PFP (control group). Fifty larvae, fasted for 24 hours, were added to each tray and incubated in the dark for 12 hours. The treated or untreated PFP was added at the time of introduction of the larvae, in all the experimental groups. The trays were then exposed to a light intensity of 1.0-4.0 mW/cm^2 and dead, dying and living larvae were counted 1 to 3 hours after the beginning of the irradiation.

Series [4] relates to Aedes aegypti larvae. Put plainly: C14 porphyrin toxicity in the dark. It counts as in vivo. To be noted: for emerged adults (%) / emerged adults (count) / adult % survival after light exposure: 5 μM C14; for emerged adults (%) / emerged adults (count): pooled data; for adult % survival after light exposure: 12 h-long irradiation 1.0-4.0 mW/cm^2. As for the experimental part: All the experiments were carried out in a climatic chamber at 28±2° C. with a regulated photoperiod of 12 hours. Transparent plastic trays, containing 500 ml C14 solutions or spring water were employed. Typically, 5±1 days old, 3rd-early 4th instar Aedes aegypti larvae were used. All the experiments were replicated three times.
At the end of the incubation period, dead and living larvae were counted in each tray. Larvae were then washed with tap water, and transferred to new trays containing spring water and PFP. Trays were kept in the dark until adults emerged. Adults were counted and exposed to light (intensity 1.0-4.0 mW/cm^2) for 12 hours, and their mortality was evaluated at the end of the irradiation period.

Setting [5] is: group B: C14 solution eluate with 70 mg fresh PFP.

Regarding `CCCCCCCCCCCCCC[n+]1ccc(-c2c3nc(c(-c4cc[n+](C)cc4)c4ccc([nH]4)c(-c4cc[n+](C)cc4)c4nc(c(-c5cc[n+](C)cc5)c5ccc2[nH]5)C=C4)C=C3)cc1.Cc1ccc(S(=O)(=O)[O-])cc1.Cc1ccc(S(=O)(=O)[O-])cc1.Cc1ccc(S(=O)(=O)[O-])cc1.Cc1ccc(S(=O)(=O)[O-])cc1` [C14, meso-tri(N-methyl-pyridyl), mono(N-tetradecyl-pyridyl)porphine], in series [1], the “decrease in the overall absorbance” value was “less than 10%”. Also, the “Time to reach ≧90% mortality” value in series [2] was determined as 3 h. In series [3] (setting [5]), this compound yielded a dying larvae of 49.8%. Moreover, the mortality in series [3] (setting [5]) worked out at 38.4%; in series [3] (group C: 5 μM C14 solution incubated 5 days in the dark without PFP, fresh PFP added), 78.2%; in series [3] (group D: freshly prepared 5 μM C14 solution with 70 mg PFP), 87.1%. For the same compound, the “emerged adults (%)” value in series [4] (dark incubation 3 hours) is on record as “(97.9) %”; in series [4] (dark incubation 8 hours) it was “(100) %”; in series [4] (dark incubation 24 hours), “(97.9) %”. The “emerged adults (count)” value is listed as 138/141 in series [4] (dark incubation 3 hours), 128/128 in series [4] (dark incubation 8 hours) and 138/141 in series [4] (dark incubation 24 hours). Besides, the “adult % survival after light exposure” value in series [4] (larval dark incubation 3 hours), in series [4] (larval dark incubation 8 hours) and in series [4] (larval dark incubation 24 hours) was 100% in each case. Moreover, the “larval mortality in the dark” value in series [4] (5 μM C14 solution, irrespectively of the duration of incubation) is reported as “No mortality”.

Source of the values: US20130296370A1, “COMPOSITION COMPRISING A PHOTOACTIVATABLE LARVICIDE” (UNIVERSITA DEGLI STUDI DI PADOVA, priority 2010, published 2013).
